Where a name gives a salt, the structure may show the parent alone.
System: STING activation (IFNβ release) in iBMDMs
Experiment: IFNβ release ELISA after STING ligand (or LPS) stimulation, iBMDMs
Assay type: cell-based, mouse
Outline: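 iBMDMs were stimulated with a STING ligand such as 3′3′-cGAMP, or with LPS. Secreted IFNβ in culture medium was measured by commercial mouse or human IFNβ ELISA.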

[1] = iBMDMs, 3′3′-cGAMP 10 μg/ml, 16 hours, compound 10 μM

Molecule | fold increase in IFN-β release [1] [fold] | further results
CO[C@H]1C[C@@H]2CC[C@@H](C)[C@@](O)(O2)C(=O)C(=O)N2CCCC[C@H]2C(=O)O[C@H]([C@H](C)C[C@@H]2CC[C@@H](OC(=O)C(C)(CO)CO)[C@H](OC)C2)CC(=O)[C@H](C)/C=C(\C)[C@@H](O)[C@@H](OC)C(=O)[C@H](C)C[C@H](C)/C=C/C=C/C=C/1C [Temsirolimus (CCI-779, NSC 683864), Temsirolimus] | 0.73 | –
CC(C)OC(=O)OCOP(=O)(CO[C@H](C)Cn1cnc2c(N)ncnc21)OCOC(=O)OC(C)C [Tenofovir Disoproxil Fumarate] | 2.88 | –
CN(C)CCCCC(=O)Nc1ccc(NC(=S)NC(=O)c2ccc(C(C)(C)C)cc2)cc1 [Tenovin-6] | 0.53 | –
O=C(NCc1ccccc1)c1csc(Nc2ccncn2)n1 [Thiazovivin] | 8.11 | 3′3′-cGAMP-induced IFNβ release [1]: promoted
CCCSc1nc(N[C@@H]2C[C@H]2c2ccc(F)c(F)c2)c2nnn([C@@H]3C[C@H](OCCO)[C@@H](O)[C@H]3O)c2n1 [Ticagrelor] | 1.70 | –
COc1ccc2cc(-c3nc(-c4ccc([S+](C)[O-])cc4)[nH]c3-c3ccncc3)ccc2c1 (stereo not drawn) [Tie2 kinase inhibitor] | 2.04 | –
O=c1oc2cc(O)ccc2s1 [Tioxolone] | 1.88 | –
C[C@@H]1CCN(C(=O)CC#N)C[C@@H]1N(C)c1ncnc2[nH]ccc12 [Tofacitinib (CP-690550, Tasocitinib), Tofacitinib] | 1.49 | –
c1ccc(CC2=NCCN2)cc1 [Tolazoline HCl] | 1.46 | –
Cc1c(Cl)cccc1Nc1ccccc1C(=O)O [Tolfenamic Acid] | 2.19 | –
Cc1ccccc1C(=O)Nc1ccc(C(=O)N2CCCC(O)c3cc(Cl)ccc32)c(C)c1 (stereo not drawn) [Tolvaptan] | 1.20 | –
CCOC(=O)N1c2ccc(C(F)(F)F)cc2[C@@H](N(Cc2cc(C(F)(F)F)cc(C(F)(F)F)c2)C(=O)OC)C[C@H]1CC [Torcetrapib] | 3.84 | –
CN(C)CCOc1ccc(/C(=C(/CCCl)c2ccccc2)c2ccccc2)cc1 [Toremifene Citrate] | 0.19 | –
Cn1c(=O)cc(N2CCC[C@@H](N)C2)n(Cc2cc(F)ccc2C#N)c1=O [Trelagliptin] | 1.80 | –
Nc1nc(N)c2nc(-c3ccccc3)c(N)nc2n1 [Triamterene] | 0.99 | –
CC(/C=C/C(=O)NO)=C\[C@@H](C)C(=O)c1ccc(N(C)C)cc1 [Trichostatin A (TSA), Trichostatin A] | 0.39 | –
CCC(COC(=O)c1cc(OC)c(OC)c(OC)c1)(c1ccccc1)N(C)C (stereo not drawn) [Trimebutine] | 0.30 | –
O=C(O[C@H]1C[C@H]2CC[C@@H](C1)[N+]21CCCC1)C(O)(c1ccccc1)c1ccccc1 [Trospium chloride] | 0.76 | –
O=C(CCCCCCC(=O)Nc1ccc([C@H]2O[C@@H](CSc3nc(-c4ccccc4)c(-c4ccccc4)o3)C[C@@H](c3ccc(CO)cc3)O2)cc1)NO [Tubacin] | 1.05 | –
CC(C)(C)c1cc(/C=C(\C#N)C(N)=S)cc(C(C)(C)C)c1O [Tyrphostin AG 879] | 1.99 | –
CCO.N#CC(=C(/N)Sc1ccccc1N)/C(C#N)=C(\N)Sc1ccccc1N [U0126-EtOH] | 0.70 | –
O=C(c1cncc(Br)c1)N1CCC(N2CCCC2)CC1 [UNC669] | 1.99 | –
NC(=O)c1cccc(-c2cccc(OC(=O)NC3CCCCC3)c2)c1 [URB597] | 2.07 | –

Molecule | fold increase in IFN-β release [1] [fold] | further results
CS(=O)(=O)c1ccc(-c2cnc(N)c(C(=O)Nc3ccccc3)n2)cc1 [VE-821] | 0.45 | –
CNCc1ccc(-c2cc(-c3nc(-c4ccc(S(=O)(=O)C(C)C)cc4)cnc3N)on2)cc1 [VE-822] | 0.86 | –
Cc1cc(Nc2cc(N3CCN(C)CC3)nc(Sc3ccc(NC(=O)C4CC4)cc3)n2)[nH]n1 [VX-680 (Tozasertib, MK-0457), Tozasertib] | 0.91 | –
O=c1ncn2nc(Sc3ccc(F)cc3F)ccc2c1-c1c(Cl)cccc1Cl [VX-745] | 6.18 | –
CCO[C@@H]1OC(=O)C[C@@H]1NC(=O)[C@@H]1CCCN1C(=O)[C@@H](NC(=O)c1ccc(N)c(Cl)c1)C(C)(C)C [VX-765] | 1.67 | –
Cc1ccc(NC(=O)C2(c3ccc4c(c3)OC(F)(F)O4)CC2)nc1-c1cccc(C(=O)O)c1 [VX-809 (Lumacaftor), Lumacaftor] | 1.07 | –
COc1cc2c(Nc3ccc(Br)cc3F)ncnc2cc1OCC1CCN(C)CC1 [Vandetanib (ZD6474), Vandetanib] | 0.25 | –
CCc1c(C(=O)C(N)=O)c2c(OCC(=O)O)cccc2n1Cc1ccccc1 [Varespladib (LY315920), Varespladib] | – | fold increase in IFN-β release (16 h, 10 µM): 1.18 fold
C[C@]1(c2nc3c(C(N)=O)cccc3[nH]2)CCCN1 [Veliparib (ABT-888), Veliparib] | 0.66 | –
CCCS(=O)(=O)Nc1ccc(F)c(C(=O)c2c[nH]c3ncc(-c4ccc(Cl)cc4)cc23)c1F [Vemurafenib (PLX4032, RG7204), Vemurafenib] | 0.59 | –
N#C[C@@H]1CCCN1C(=O)CNC12CC3CC(CC(O)(C3)C1)C2 [Vildagliptin (LAF-237), Vildagliptin] | 1.04 | –
C[C@@H](c1ncncc1F)[C@](O)(Cn1cncn1)c1ccc(F)cc1F [Voriconazole] | 2.35 | –
c1ccc(NCc2ccc(CNc3ccccn3)cc2)nc1 [WZ811] | 1.67 | –
C=CC(=O)Nc1cccc(Oc2nc(Nc3ccc(N4CCN(C)CC4)cc3OC)ncc2Cl)c1 [WZ4002] | 1.42 | –
CCC(=O)Nc1cccc(Oc2nc(Nc3ccc(N4CCN(C)CC4)cc3OC)ncc2Cl)c1 [WZ4003] | 0.12 | –
Cc1cc(-c2ccc(CC(=O)Nc3ccc(-c4cccnc4)cc3)cc2)ccn1 [Wnt-059 (C59)] | 0.13 | –
Oc1nc(-c2ccc(C(F)(F)F)cc2)nc2c1CSCC2 [XAV-939] | 1.00 | –
CC(C)OC(=O)C1=CN(C(=O)c2ccc(F)c(F)c2)CC(C)(C)c2c1[nH]c1ccccc21 [XL335] | 0.26 | –
CCOc1cc(N2CCC(O)CC2)ccc1Nc1ncc2c(n1)N(C)c1ccccc1C(=O)N2C [XMD8-92] | 2.38 | –
COCCn1c2c([n+](Cc3cnccn3)c1C)C(=O)c1ccccc1C2=O [YM155 (Sepantronium Bromide), Sepantronium Bromide] | 0.30 | –
C[C@H](NC(=O)Cc1cc(F)cc(F)c1)C(=O)N[C@@H]1C(=O)N(C)c2ccccc2-c2ccccc21 [YO-01027] | 1.74 | –
Cc1cc(C)nc(NS(=O)(=O)c2ccc(NC(=S)NC(=O)COc3ccc(Br)cc3Cl)cc2)n1 [ZCL278] | 2.52 | –
COc1cc2ncnc(Nc3ccc(Cl)cc3F)c2cc1OC [ZM 306416] | 0.14 | –

Molecule | fold increase in IFN-β release [1] [fold] | further results
COc1cc2c(Nc3ccc(NC(=O)c4ccccc4)cc3)ncnc2cc1OCCCN1CCOCC1 [ZM 447439] | 0.69 | –
O=c1ncccn1[C@@H]1O[C@H](CO)[C@@H](O)[C@H]1O [Zebularine] | 1.50 | –
COc1nc(C)cnc1NS(=O)(=O)c1cccnc1-c1ccc(-c2nnco2)cc1 [Zibotentan (ZD4054), Zibotentan] | 1.17 | –
O[C@@H](COc1cccc2ncccc12)CN1CCN([C@@H]2c3ccccc3[C@@H]3[C@H](c4ccccc42)C3(F)F)CC1 [Zosuquidar (LY335979) 3HCl, Zosuquidar] | 4.10 | –
(−)-MK 801 Maleate | 4.76 | –
(−)-Parthenolide | 0.16 | –
HO-3867 | 0.52 | –
HSP990 (NVP-HSP990) | 0.26 | –
IM-12 | 2.17 | –
Ifenprodil Tartrate | 1.71 | –
KX2-391 | 0.77 | –
Maraviroc | 2.50 | –
OG-L002 | 1.06 | –
PF-04620110 | 3.43 | –
Pifithrin-μ | 0.16 | –
S3I-201 | 0.88 | –
SN-38 | 1.72 | –
SNS-314 Mesylate | 1.10 | –
Tropicamide | 2.09 | –
VU 0357121 | 1.49 | –
VU 0364439 | 1.60 | –
VU 0364770 | 2.00 | –

— patent US11179412B2, “Methods of treating conditions involving elevated inflammatory response” (University of Pittsburgh—Of the Commonwealth System of …, priority 2017, dated 2021)
